These results are taken from patent publication US20030008015A1, “Polymer controlled delivery of a therapeutic agent” (priority 2000, published 2003).

The structures appear in SMILES notation.

Assay [1] has as its system MBT-2 cells. In words: Observation of MBT-2 cells after incubation with free paclitaxel or particles (confocal microscope). In kind it is cell-based. The note with it: 4.4×10^−5 M paclitaxel, observed on day 4. As for the experimental part: Cells were also observed after incubation with free paclitaxel or particles. Cells were seeded on chambered cover-glasses (Labtek). After 1 day, free paclitaxel (4.4×10^−5 M) or particles (same concentration of paclitaxel) were added. Medium was replaced every day with free paclitaxel or medium only in the case of the particles. On day 4, cells were washed, fixed during 30 minutes with paraformaldehyde (2%) then observed with a confocal microscope (Zweiss Axiovert 100) for localization of particles.

Assay [2] has as its system BBN-induced bladder cancer. In words: Antitumor activity on BBN-induced bladder cancer: survival and body weight. In kind it is in vivo. The note with it: BBN mice. As for the experimental part:
(§1) Bladder cancer was induced in female Balb-c mice (8 weeks old) with the carcinogen BBN that was given as a 0.05% solution in the drinking water during 4 weeks. Mice were then treated intravesically (50 μL) with free paclitaxel ([…]) in Tween 80 5%), loaded particles (100 μg) or unloaded particle suspensions. Schedule of administration was the following: mice received the treatment every week during 4 weeks or every other week during 4 weeks. Body weights were recorded every week for all the animals. One week after the last instillation, all the animals were killed. Bladders were removed, weighed and fixed in paraformaldehyde 10% overnight then embedded in paraffin and sectioned.
The anti-cancer activity of paclitaxel encapsulated in microparticles of the invention was assayed against bladder cancer following intravesical instillation. Experimental bladder cancer was induced in female Balb/c mice with BBN, a carcinogenic compound that was added to the drinking water 4 weeks before starting the treatment we compared the same dose (100 μg) of free paclitaxel, encapsulated paclitaxel and non-loaded particles as a control (12 animals per group). Mice received the treatment either once a week or every other week for 4 weeks and number of surviving mice as well as body weight of mice were recorded every week. […]

In assay [3] the test system is BBN-induced bladder cancer. In words: Histologic evaluation and BrdU proliferation index of bladder sections of BBN-mice. In kind it is in vivo. The note with it: for Dysplasia (No) / HGTCC (No): number of animals; for CIS (No): number of animals with carcinoma in situ. On the procedure: as §1
One week after the last instillation, all the animals were sacrificed and histologic evaluation was performed on haematoxilin and eosin stained sections (table 1). […] In the group treated with free paclitaxel once a week or every other week, CS was found in 5 cases (71°/b) and 7 cases (78%), respectively. On the contrary, no animal of 7 (0%) in the group treated with encapsulated paclitaxel once a week had CIS. Only 2 animals of 9 (22%) treated with particles every other week had CIS. In the groups treated with the paclitaxel, the urothelium was focally or predominantly denuded.
Proliferation index was calculated on these sections using the BrdU incroporation into proliferative cells. BrdU staining was localized in the nucleus with a fine granularity. Nuclei were considered BrdU positve if any nuclear staining was observed. The control group presented a proliferative index of 30% compared to the proliferative index of 10% in a normal urothelium. In all other groups, there was a high proliferative index, from about 35% in groups receiving encapsulated paclitaxel to 65% in groups receiving free paclitaxel.

The subject of assay [4] is MBT-2 cells. Nature of the assay: MBT-2 cell proliferation assay (MTS tetrazolium). Type of assay: cell-based. The note with it: 3 days, medium with free or extracted paclitaxel replaced every day, 2.9×10^−6 M to 2.9×10^−9 M or serial dilutions. On the procedure:
MBT-2 cells in culture flasks were maintained in Dulbecco's Modified Eagles Medium, 10% fetal calf serum, 100 μg/mL penicillin and 100 μg/mL streptomycin at 37° C. in an atmosphere of 5% CO2.
For proliferation assay experiments, cells were harvested with Trypsin-EDTA and seeded (3,000 cells) on an uncoated 96-well plate (Falcon). A standard curve was established by using paclitaxel solutions that were prepared by first dissolving paclitaxel in dimethylsulfoxide (DMSO), then dilution with culture medium. Final concentration of DMSO was 0.75%. After 1 day, the culture medium was replaced by medium containing free paclitaxel, with concentrations ranging from 2.9×10^−6 M to 2.9×10^−9 M or paclitaxel extracted from a paclitaxel-loaded microparticle, with serial dilutions. […] After 3 days, cell proliferation was measured by a tetrazolium-based assay (CellTiter96, Promega). […] Formazan production, related to enzymatic cell activity, was determined at 490 rim (Biorad plate reader Model 550). Results are expressed as a percentage of growth inhibition compared to cells incubated in the same conditions with medium. Paclitaxel encapsulation was then calculated from the standard curve of growth inhibition of free paxlitaxel.
Paclitaxel-loaded microparticle activity on MBT-2 cells was also determined with no extraction process. […] After 3 days, cell proliferation was measured as described above.

The mark [5] stands for this setting: 100 μg every other week for 4 weeks.

With `CC(=O)O[C@H]1C(=O)[C@@]2(C)[C@H]([C@H](OC(=O)c3ccccc3)[C@]3(O)C[C@H](OC(=O)[C@H](O)[C@@H](NC(=O)c4ccccc4)c4ccccc4)C(C)=C1C3(C)C)[C@]1(OC(C)=O)CO[C@@H]1C[C@@H]2O` [Free paclitaxel, Paclitaxel], in the assay with MBT-2 cells [1], the “shape of the cells” value is recorded as “modification of the shape of the cells was observed”. Further, the survival rate in assay [2] (100 μg intravesically every other week for 4 weeks) and in assay [2] (100 μg intravesically once a week for 4 weeks) was 82% throughout. Moreover, the “CIS (%)” value was “(78%)” in assay [3] (setting [5]); 78% in assay [3] (100 μg every other week for 4 weeks, listed as free paclitaxel); “(71%)” in assay [3] (100 μg once a week for 4 weeks); 71% in assay [3] (100 μg once a week for 4 weeks, listed as free paclitaxel). Besides, the “Proliferative Index (%)” value in assay [3] (100 μg every other week for 4 weeks, BrdU) was found to be 61%; in assay [3] (100 μg once a week for 4 weeks, BrdU), 65%. Also, the “Dysplasia (No)” value is given as 1 in assay [3] (setting [5]) and 0 in assay [3] (100 μg once a week for 4 weeks). Moreover, the “HGTCC (No)” value in assay [3] (setting [5]) and in assay [3] (100 μg once a week for 4 weeks) was 1 in each case. Besides, the “CIS (No)” value was found to be 7 in assay [3] (setting [5]) and 5 in assay [3] (100 μg once a week for 4 weeks). In addition, in assay [3] (100 μg, BBN induced bladder cancer), the “effect on the incidence of CIS” value is “almost no effect”. Besides, in assay [3] (BrdU, groups without stated schedule), the proliferative index came to 65%. Further, the MBT-2 cell proliferation result with MBT-2 cells [4] is reported as “decreased with an increased concentration”.
For `CC(=O)O[C@H]1C(=O)[C@@]2(C)[C@H]([C@H](OC(=O)c3ccccc3)[C@]3(O)C[C@H](OC(=O)[C@H](O)[C@@H](NC(=O)c4ccccc4)c4ccccc4)C(C)=C1C3(C)C)[C@]1(OC(C)=O)CO[C@@H]1C[C@@H]2O` [paclitaxel extracted], the MBT-2 cell proliferation entry in the assay with MBT-2 cells [4] is “the same trend was observed”.
